In patent US5637582A, “Peripheral circulation improving agent” (priority 1992, dated 1997):

Tests used:
femoral artery = test: Maximum increase in femoral arterial blood flow in anesthetized dogs, cumulative i.v. dosing (Experimental Example 3); assay type: in vivo, dog; settings: maximum during 60 min
Procedure: Adult dogs (one group consisting of 5 dogs) were intravenously given the test compound under anesthesia and artificial respiration successively at intervals of 60 minutes so that the dose can be 10, 30, 100, 300 and 1000 μg/kg body weight, and the blood flow of femoral artery was measured with a time course. […] An increase in the femoral arterial blood flow was calculated by subtracting the blood flow before the administration of the first dose of test compound as the standard value (the base line) from that of maximum during an interval of 60 minutes after each administration.

arterial blood pressure = tested on: arterial blood pressure; set-up: species or system male SD rat; settings: rat, in vivo
Procedure: (Lower limbs peripheral circulation disorder model due to hind leg cooling: Model of Raynaud's disease) […] TP-200T, trade name) through a catheter attached to the artery. […] After the operation, at the time that the state became stable, the left hind leg was exposed to a perfused solution at 10° C. to decrease the femoral arterial blood flow. […] In the case of Beraprost Na, continuous injection in an amount of […] was carried out after 30 minutes from cooling. […] The present model is disclosed, for example, in Nishio et al, "Effect of Beraprost Sodium on Peripheral Circulatory Disturbances Induced by Various Stimuli", Arzneim.-Forsch./Drug Res., 39 (II), Nr. 10 (1989), pp. 1229-1234. Note particularly the section "2.4. Sphygmometry in rat hind paw", at page 1230.

[1] = tested on: right anterior tibial muscle; test: Abdominal aorta knot-anterior tibial muscle contraction model: model of Buerger's disease (Experimental Example 6); assay type: in vivo, rat; set-up: Change in contraction of the right anterior tibial muscle: unit not given here; settings: 10 mg/kg/day p.o. 2 weeks
Procedure: (Abdominal aorta knot-anterior tibial muscle contraction model: Model of Buerger's disease)
Rats were previously divided into four groups (Group I: sham operation+5 ml/kg/day of distilled water, Group II: sham operation+10 mg/kg/day of the test compound A, Group III: abdominal aorta knot+5 ml/kg/day of distilled water, and Group IV: abdominal aorta knot+10 mg/kg/day of the test compound A), and operated under anesthesia, 10 mg/kg/day of the test compound A or 5 ml/kg/day of distilled water was orally administered to respective rats, to which an abdominal aorta was knotted or a sham operation was applied, for 2 weeks. Thereafter, a catheter was inserted into a trachea to secure airway under anesthesia. A skin at the right hind leg was cut to expose a muscle and a right anterior tibial muscle was isolated. After the operation, at the time that the state became stable, 10 mg/kg of the test compound A or 1 ml/kg of 0.25% CMC was administered into a duodenum. After 60 minutes from the administration, a tendon of the right anterior tibial muscle was connected with a transducer and the right anterior tibial muscle was directly stimulated electrically with platinum electrodes at 0.5 Hz to obtain a Force-Current curve. Then, electrical stimulation was carried out with a current which submaximally contracted the right anterior tibial muscle and a stimulation frequency of 1.5 Hz for 30 minutes to observe the progress. […]

vertebral artery = test: Change of vertebral arterial blood flow in anesthetized dogs (Experimental Example 4); settings: 100 μg/kg i.v.
Procedure: Each test compound was intravenously administered to adult dogs (one group consisting of 2 or 4 dogs) under anesthesia and artificial respiration at a dose of 100 μg/kg body weight. Femoral arterial blood flow, vertebral arterial blood flow and arterial blood pressure were measured 1, 3, 5, 10, 20 and 30 minutes after the administration. The femoral arterial blood flow and vertebral arterial blood flow were measured with an electromagnetic blood flowmeter (manufactured by Nihon Koden, MFV-2100, trade name) through a flow probe attached to the femoral artery or vertebral artery. The arterial blood pressure was measured with a pressure transducer (manufactured by Millar, MICRO-TIP, Model SPC-350) through a catheter attached to the brachial artery.
Changes of the femoral arterial blood flow, vertebral arterial blood flow and arterial blood pressure were estimated by comparing the values measured before and after the administration of the test compound.

## CC(=O)O[C@@H]1C(=O)N(CCN(C)C)c2ccc(C)cc2S[C@@H]1c1ccc(C)cc1 [Compound A]
Femoral artery; 10 μg/kg i.v.
  Increase in femoral arterial blood flow: 5.6 mL/min
Femoral artery; 30 μg/kg i.v.
  Increase in femoral arterial blood flow: 40.4 mL/min
Femoral artery; 100 μg/kg i.v.
  Increase in femoral arterial blood flow: 55.2 mL/min
Femoral artery; 300 μg/kg i.v.
  Increase in femoral arterial blood flow: 61.4 mL/min
Arterial blood pressure
  Mean Arterial Pressure change: 0.00 Δ mmHg
[1]; Group II: sham operation
  Time (min) until 20A% contraction: 16.65 ± 2.99 min
[1]; Group II: sham operation, 1 min
  Change in contraction of the right anterior tibial muscle: 3.29
[1]; Group II: sham operation, 3 min
  Change in contraction of the right anterior tibial muscle: 1.71
[1]; Group II: sham operation, 5 min
  Change in contraction of the right anterior tibial muscle: -1.29
[1]; Group II: sham operation, 10 min
  Change in contraction of the right anterior tibial muscle: -12.88
[1]; Group II: sham operation, 15 min
  Change in contraction of the right anterior tibial muscle: -20.91
[1]; Group II: sham operation, 20 min
  Change in contraction of the right anterior tibial muscle: -25.66
[1]; Group II: sham operation, 30 min
  Change in contraction of the right anterior tibial muscle: -30.19
[1]; Group IV: abdominal aorta knot
  Time (min) until 20A% contraction: 17.27 ± 3.70 min
[1]; Group IV: abdominal aorta knot, 1 min
  Change in contraction of the right anterior tibial muscle: 2.44
[1]; Group IV: abdominal aorta knot, 3 min
  Change in contraction of the right anterior tibial muscle: -1.04
[1]; Group IV: abdominal aorta knot, 5 min
  Change in contraction of the right anterior tibial muscle: -4.35
[1]; Group IV: abdominal aorta knot, 10 min
  Change in contraction of the right anterior tibial muscle: -15.46
[1]; Group IV: abdominal aorta knot, 15 min
  Change in contraction of the right anterior tibial muscle: -21.82
[1]; Group IV: abdominal aorta knot, 20 min
  Change in contraction of the right anterior tibial muscle: -25.98
[1]; Group IV: abdominal aorta knot, 30 min
  Change in contraction of the right anterior tibial muscle: -30.17
Vertebral artery; 1 min
  Vertebral Arterial Blood Flow change (side effects): 0.3 Δ ml/min
Vertebral artery; 3 min
  Vertebral Arterial Blood Flow change (side effects): 0.0 Δ ml/min
Vertebral artery; 5 min
  Vertebral Arterial Blood Flow change (side effects): -0.5 Δ ml/min
Vertebral artery; 10 min
  Vertebral Arterial Blood Flow change (side effects): -1.5 Δ ml/min
Vertebral artery; 20 min
  Vertebral Arterial Blood Flow change (side effects): -2.8 Δ ml/min
Vertebral artery; 30 min
  Vertebral Arterial Blood Flow change (side effects): -2.5 Δ ml/min
Vertebral artery; G and H: one minute after, in words
  effect on vertebral arterial blood flow: substantially no effect
